Reference: patent US20040077709A1, “Neuronal death inhibitors” (DAIICHI PHARMACEUTICAL CO., LTD., priority 1999, published 2004)

Columns and labels:
EL mice (EL[s]) = assay: DNA fragmentation (TdT labeling) in brain sections of EL mice after oral nefiracetam; type: in vivo; details: EL[s] mice aged 30 weeks, 10 mg/kg oral once a day
From the text: Employed were three groups each constituting 6 mice aged 30 weeks, that is, EL mice (EL[s]) given an epileptogenic stimulus once a week and thus having a low threshold, EL mice (EL[ns]) not given an epileptogenic stimulus and free from epileptic seizure at least during observation and DDY mice as a control. Each group was compared with that consisting of 40 to 50 week old mice in order to omit the influence of aging. A section of 10 μm was fixed to a gelatin-coated sliding glass in a cryostat, followed by permeabilization with 0.1% sodium citrate and 0.1% Triton X-100 at 4° C. for 5 minutes. DNA fragmentation was detected by polymerizing a fluorescein-labeled nucleotide with the 3′-OH ends of the cleaved DNA by using terminal transferase (TdT). Reaction with an anti-fluorescein antibody conjugated with peroxidase (PD) or alkali phosphatase (AP) developed color, thereby enabling detection by an optical microscope. As a negative control, TdT(−) and as a positive control, a sample treated with DNAaseI were employed. Nefiracetam was orally administered to the test group (aged 30 weeks, EL[s]) once (10 mg/kg) a day. While thus controlling the occurrence of epileptic seizure, a relationship between the nefiracetam administration terms (1, 3, 5 and 7 days) and appearing frequency of DNA fragmentation was observed.
As a result, DNA fragmentation was detected from neither DDY mice aged 30 weeks (adult) nor those aged 40 weeks (having an influence of aging) which served as a negative control. In the EL mice (EL[s]) having epileptic seizure, whether they were aged 30 weeks or 40 weeks, DNA fragmentation was recognized from their hippocampus and parietal cortex. In the EL mice (El[ns]) free from epileptic seizure, whether they were aged 30 weeks or 40 weeks, DNA fragmentation was recognized in only a narrower region at a lower frequency than the EL[s]. In their hippocampus, no DNA fragmentation was recognized.
EL mice serve as a model of the region-specific secondary generalized epilepsy. Although having no severe tissue injury, they are known for accelerated production of free radicals in the hippocampus and parietal cortex constituting a partial complex seizure, a rise in NO and site-specific expression of the immediately early genes (c-fos, zif) during an epileptogenicity acquiring procedure.

male mice = details: oral; cited from earlier work
[1] = five days after the administration, FIG. 2
[2] = single administration (one day), FIG. 1

## Cc1cccc(C)c1NC(=O)CN1CCCC1=O [nefiracetam, 2-oxo-1-pyrrolidinylacetic acid 2,6-dimethylanilide]
EL mice (EL[s]); [1]
  DNA fragmentation in the hippocampus: disappeared
  DNA fragmentation in the parietal cortex: no change
EL mice (EL[s]); [2]
  DNA fragmentation in the hippocampus: recognized
  DNA fragmentation in the parietal cortex: recognized
Male mice
  acute toxicity: 2,005 mg/kg
